Reference: patent US8410113B2, “(2R)-1-(3-chloro-2-pyrazinyl)-2-methylpiperazine and salts thereof” (Biovitrum AB (publ), priority 2002, dated 2013)
“Also recorded” adds a separate entry of the source.

Key:
5-HT2c receptor [1] = target: T1, 5-HT2c receptor (Mus musculus, UniProt P34968); conditions: mice that express the normal 5-HT2c receptor; cited from earlier work
T1 construct: mice that express the normal 5-HT2c receptor; host or cells: mice (whole animal)
T1 sequence (P34968 33-459): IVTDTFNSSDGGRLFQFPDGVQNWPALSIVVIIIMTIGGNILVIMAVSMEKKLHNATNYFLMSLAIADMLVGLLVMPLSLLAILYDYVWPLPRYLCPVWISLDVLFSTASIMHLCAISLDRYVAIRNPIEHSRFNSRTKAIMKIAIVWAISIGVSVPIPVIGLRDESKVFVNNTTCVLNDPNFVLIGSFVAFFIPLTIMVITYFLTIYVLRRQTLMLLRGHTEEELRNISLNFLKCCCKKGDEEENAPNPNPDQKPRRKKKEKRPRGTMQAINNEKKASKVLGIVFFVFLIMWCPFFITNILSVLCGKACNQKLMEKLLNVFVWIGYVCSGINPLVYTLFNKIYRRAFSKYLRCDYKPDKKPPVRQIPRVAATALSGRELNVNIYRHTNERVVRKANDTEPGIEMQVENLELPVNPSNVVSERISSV

5-HT2c receptor [2] = conditions: mice expressing the mutated inactive form of the 5-HT2c receptor; cited from earlier work
[3] = obese subjects, after 2 weeks of treatment; cited from earlier work
[4] = Crystallinity (X-rays / powder X-ray diffraction); format: physicochemical; conditions: salts of Example 2A, L-malate salt
From the text: (§1) Crystallinity (Powder X-Ray Diffraction)
as §1

[5] = Hygroscopicity (DVS, storage at RT/different RHs and at 40° C./75% RH); format: physicochemical; conditions: salts of Example 2A; for Hygroscopicity: DVS, storage at RT/different RHs, L-malate salt
Description: Hygroscopicity (DVS, Storage at RT/Different RHs and at 40° C./75% RH)

[6] = Chemical stability (2 weeks at 65° C.); format: physicochemical; conditions: salts of Example 2A, also RT/90% RH, L-malate salt
Description: Chemical Stability (2 Weeks at 65° C.)

[7] = Polymorphism screen (RT evaporation, cooling crystallization at −20° C.); format: physicochemical; conditions: salts of Example 2A, cooling crystallization at −20° C. in different solvent or mixtures
[8] = salts of Example 2A; assessment, no test described; cited from earlier work
[9] = Chemical stability during storage; conditions: long term storage; free base vs hydrochloride

Q: Which weight loss (5-HT2c receptor [1]) does the source give for `Clc1cccc(N2CCNCC2)c1` [mCPP, m-chlorophenylpiperazine] here?
A: Its weight loss is “causes weight loss”.

Q: What about the weight loss (5-HT2c receptor [2]) of the same molecule?
A: The weight loss was “lacks activity”.

Q: What about the body weight [3] of the same molecule?
A: The body weight was “slight but sustained reduction in body weight”.

Q: Which “Crystallinity (X-Rays)” value [4] does the source give for `C[C@@H]1CNCCN1c1nccnc1OCCOc1cccnc1.O=C(O)C[C@H](O)C(=O)O` [Example 3A, (2R)-methyl-1-{3-[2-(3-pyridinyloxy)ethoxy]-2-pyrazinyl}piperazine, L-malate salt] here?
A: Its value is “higher crystallinity”.

Q: What about the “Crystallinity (X-Rays)” value ([4]; listed as L-malate) of the same molecule?
A: Its value is “Positive results; also recorded: high crystallinity”.

Q: And the “behavior upon exposition to 40° C./75% RH” value ([5]; 40° C./75% RH)?
A: Its value is “good behavior”.

Q: What about the Hygroscopicity [5] of the same molecule?
A: Its Hygroscopicity is “less hygroscopic”.

Q: What about the Hygroscopicity ([5]; listed as L-malate) of the same molecule?
A: Its Hygroscopicity is “low hygroscopicity”.

Q: And the Chemical stability [6]?
A: The Chemical stability was “higher chemical stability”.

Q: And the Chemical stability ([6]; listed as L-malate)?
A: Its Chemical stability is “Positive data; also recorded: high chemical stability”.

Q: What about the Polymorphism [7] of the same molecule?
A: The Polymorphism was “did not show other polymorphs”.

Q: And the Toxicological acceptability [8]?
A: The Toxicological acceptability was “low toxicity”.

Q: Which melting point does the source give for `C[C@@H]1CNCCN1c1nccnc1Cl.Cl` [Example 9, (2R)-1-(3-chloro-2-pyrazinyl)-2-methylpiperazine, hydrochloride] here?
A: Its melting point is 209 to 210.5 °C.

Q: What about the stability for storage [9] of the same molecule?
A: Its stability for storage is “considerably more stable”.
